In US20250325677A1, “STAT6 DEGRADERS” (Gilead Sciences, Inc., priority 2024, published 2025) one finds DC50 and Emax data, which are given here for eleven compounds.

The target of one assay is STAT6 (Homo sapiens (Human), UniProt P42226). The experiment in a line: STAT6 degrader assay (HiBiT, HeLa LgBiT clone 4.14). Type of assay: cell-based. The note with it: HeLa LgBiT clone 4.14, 4-24 h; geometric mean; given for compounds with >80% Emax; read-out: STAT6 degradation DC50. On the procedure: This was a HiBit based assay. A HeLa cell line stably transfected with a small protein, LgBit (Large Bit) was obtained from Promega. These cells express endogenous STAT6. A small 11 amino acid gene sequence (HiBiT) was inserted in the STAT6 gene using CRISPR technology. Once STAT6 protein is expressed in the cells, the HiBiT sequence will bind the LgBit in the cells resulting in a functional NanoBiT protein, giving a luminescent tag to STAT6, see FIG. 2.
Chain of STAT6 (P42226 whole entry): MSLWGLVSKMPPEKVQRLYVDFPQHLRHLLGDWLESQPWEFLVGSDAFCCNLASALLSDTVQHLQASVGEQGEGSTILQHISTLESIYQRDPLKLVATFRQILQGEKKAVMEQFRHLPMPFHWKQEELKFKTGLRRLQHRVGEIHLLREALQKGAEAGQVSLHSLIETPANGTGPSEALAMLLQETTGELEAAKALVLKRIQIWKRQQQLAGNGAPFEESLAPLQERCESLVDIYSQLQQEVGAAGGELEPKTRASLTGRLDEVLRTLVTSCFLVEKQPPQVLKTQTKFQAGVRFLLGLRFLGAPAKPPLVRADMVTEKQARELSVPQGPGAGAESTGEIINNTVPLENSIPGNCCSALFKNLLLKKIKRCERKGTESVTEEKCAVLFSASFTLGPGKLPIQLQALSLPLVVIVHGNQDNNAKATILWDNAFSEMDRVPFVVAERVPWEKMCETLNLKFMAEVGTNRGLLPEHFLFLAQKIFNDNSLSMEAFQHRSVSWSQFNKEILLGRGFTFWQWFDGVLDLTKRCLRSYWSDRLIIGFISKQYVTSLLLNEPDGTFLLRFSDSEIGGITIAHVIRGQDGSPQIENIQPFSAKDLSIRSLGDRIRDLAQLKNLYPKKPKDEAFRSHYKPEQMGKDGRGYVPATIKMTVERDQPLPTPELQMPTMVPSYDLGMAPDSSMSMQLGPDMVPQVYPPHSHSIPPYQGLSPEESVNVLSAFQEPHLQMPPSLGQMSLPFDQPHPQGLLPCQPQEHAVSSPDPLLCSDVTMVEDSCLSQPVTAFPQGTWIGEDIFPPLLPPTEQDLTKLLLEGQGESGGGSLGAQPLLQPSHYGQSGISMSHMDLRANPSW
Single cell clones were prepared and the clone 4.14 was selected for the assay based on that clone showing high luminescence, high STAT6 phosphorylation upon stimulation with IL-4, and inhibition of luminescence when cells were treated with STAT6 siRNA.
HeLa LgBiT clone 4.14 cells were suspended in DMEM with 10% FCS, 1% Pen/Strep, Na-pyrovate and Hygromycin B, at a concentration of 1.25*105 cells pr mL. 5000 cells were added pr well of a 384 well plate and 20 nL of compound was added by Echo® liquid handler. NN6394A (terfenadine, a toxic compound) was added to control wells at 50 μM concentration to establish the assay window. In these wells the cells are dead which equals 100% degradation of STAT6.
After 4-24 h of incubation at 37° C. under 5% CO2/95% air, 5 μL substrate (Nano-GLO®) was added to the wells and the plates were centrifuged and incubated for 0.5 h.
The luminescence in the wells as a measure of non-degraded STAT6 was measured in a plate reader (BMG Pherastar FSX). The measured DC50 (in nM) was determined.
The dose-response curves Examples 3p1, 3e50, 3e17, and 3e51 are shown below (where percent degradation is plotted vs. test compound concentration in M on a log-scale).
Take `COCc1nc2cc(-c3ccnc4c3cc([C@H](C)N3CCC(c5ccc(C(=O)N6CCC(CN7CCN(Cc8ccc9c(c8)n(C)c(=O)n9C8CCC(=O)NC8=O)C[C@@H]7C)CC6)cc5)CC3)n4C)ccc2[nH]1` (stereo partly drawn) [Example 3e22, 3-(5-(((S)-4-((1-(4-(1-((S)-1-(4-(2-(methoxymethyl)-1H-benzo[d]imidazol-5-yl)-1-methyl-1H-pyrrolo[2,3-b]pyridin-2-yl)ethyl)piperidin-4-yl)benzoyl)piperidin-4-yl)methyl)-3-methylpiperazin-1-yl)methyl)-3-methyl-2-oxo-2,3-dihydro-1H-benzo[d]imidazol-1-yl)piperidine-2,6-dione]: the half-maximal degradation concentration (DC50) worked out at 0.3 nM.

For `C[C@@H](c1cc2c(-c3ccc(N)nc3)ccnc2n1C)N1CCC(c2ccc(C(=O)N3CCC(CN4CCN(Cc5ccc6c(c5)n(CC(F)(F)F)c(=O)n6C5CCC(=O)NC5=O)CC4)CC3)cc2)CC1` (stereo partly drawn) [Example 3e25, 3-(5-((4-((1-(4-(1-((S)-1-(4-(6-aminopyridin-3-yl)-1-methyl-1H-pyrrolo[2,3-b]pyridin-2-yl)ethyl)piperidin-4-yl)benzoyl)piperidin-4-yl)methyl)piperazin-1-yl)methyl)-2-oxo-3-(2,2,2-trifluoroethyl)-2,3-dihydro-1H-benzo[d]imidazol-1-yl)piperidine-2,6-dione], the DC50 worked out at 4 nM.

On to `[2H]C([2H])([2H])n1c(=O)n(C2CCC(=O)NC2=O)c2ccc(CN3CCN(CC4CCN(C(=O)c5ccc(C6CCN([C@@H](C)c7cc8c(-c9ccc(N)nc9)ccnc8n7C)CC6)cc5)CC4)CC3)cc21` (stereo partly drawn) [Example 3e26, 3-(5-((4-((1-(4-(1-((S)-1-(4-(6-aminopyridin-3-yl)-1-methyl-1H-pyrrolo[2,3-b]pyridin-2-yl)ethyl)piperidin-4-yl)benzoyl)piperidin-4-yl)methyl)piperazin-1-yl)methyl)-3-(methyl-d3)-2-oxo-2,3-dihydro-1H-benzo[d]imidazol-1-yl)piperidine-2,6-dione], for which the half-maximal degradation concentration (DC50) is 1.1 nM.

Regarding `COCc1nc2cc(-c3ccnc4c3cc([C@H](C)N3CCC(c5ccc(C(=O)N6CCC(CN7CCN(Cc8ccc9c(c8)n(C)c(=O)n9C8CCC(=O)NC8=O)CC7)CC6)cc5)CC3)n4C)ccc2[nH]1` (stereo partly drawn) [Example 3e66, 3-(5-((4-((1-(4-(1-((S)-1-(4-(2-(methoxymethyl)-1H-benzo[d]imidazol-5-yl)-1-methyl-1H-pyrrolo[2,3-b]pyridin-2-yl)ethyl)piperidin-4-yl)benzoyl)piperidin-4-yl)methyl)piperazin-1-yl)methyl)-3-methyl-2-oxo-2,3-dihydro-1H-benzo[d]imidazol-1-yl)piperidine-2,6-dione], the DC50 was 0.5 nM.

Regarding `Cn1c(CN2CCC(c3ccc(C(=O)N4CCC(CC5CCN(Cc6ccc7c(c6)n(C)c(=O)n7C6CCC(=O)NC6=O)CC5)CC4)cc3)CC2)cc2c(-c3ccc4[nH]ncc4c3)ccnc21` (centres unmarked) [Example 3h1, 3-(5-((4-((1-(4-(1-((4-(1H-indazol-5-yl)-1-methyl-1H-pyrrolo[2,3-b]pyridin-2-yl)methyl)-piperidin-4-yl)benzoyl)piperidin-4-yl)methyl)piperidin-1-yl)methyl)-3-methyl-2-oxo-2,3-dihydro-1H-benzo[d]imidazol-1-yl)piperidine-2,6-dione], the DC50 was 2.4 nM.

As for `CNc1ccc(-c2ccnc3c2cc([C@H](C)N2CCC(c4ccc(C(=O)N5CCC(CN6CCN(Cc7ccc8c(c7)n(C)c(=O)n8C7CCC(=O)NC7=O)C[C@@H]6C)CC5)cc4)CC2)n3C)cn1` (stereo partly drawn) [Example 3h2, 3-(3-methyl-5-(((S)-3-methyl-4-((1-(4-(1-((S)-1-(1-methyl-4-(6-(methylamino)pyridin-3-yl)-1H-pyrrolo[2,3-b]pyridin-2-yl)ethyl)piperidin-4-yl)benzoyl)piperidin-4-yl)methyl)piperazin-1-yl)methyl)-2-oxo-2,3-dihydro-1H-benzo[d]imidazol-1-yl)piperidine-2,6-dione], the 50% degradation concentration (DC50) was 0.8 nM.

Turning to `CNc1ccc(-c2ccnc3c2cc([C@H](C)N2CCC(c4ccc(C(=O)N5CCC(CN6CCN(Cc7ccc8c(c7)n(C)c(=O)n8[C@H]7CCC(=O)NC7=O)C[C@@H]6C)CC5)cc4)CC2)n3C)cn1` [Example 3h4, (S)-3-(3-methyl-5-(((S)-3-methyl-4-((1-(4-(1-((S)-1-(1-methyl-4-(6-(methylamino)pyridin-3-yl)-1H-pyrrolo[2,3-b]pyridin-2-yl)ethyl)piperidin-4-yl)benzoyl)piperidin-4-yl)methyl)piperazin-1-yl)methyl)-2-oxo-2,3-dihydro-1H-benzo[d]imidazol-1-yl)piperidine-2,6-dione], the DC50 was 1 nM.

On to `CNc1ccc(-c2ccnc3c2cc([C@H](C)N2CC=C(c4c(C)cc(C(=O)N5CCC(CN6CCN(Cc7ccc8c(c7)n(C7CC7)c(=O)n8[C@@H]7CCC(=O)NC7=O)C[C@@H]6C)CC5)cc4F)CC2)n3C)cn1` [Example 3h7, (R)-3-(3-cyclopropyl-5-(((S)-4-((1-(3-fluoro-5-methyl-4-(1-((S)-1-(1-methyl-4-(6-(methylamino)pyridin-3-yl)-1H-pyrrolo[2,3-b]pyridin-2-yl)ethyl)-1,2,3,6-tetrahydropyridin-4-yl)benzoyl)piperidin-4-yl)methyl)-3-methylpiperazin-1-yl)methyl)-2-oxo-2,3-dihydro-1H-benzo[d]imidazol-1-yl)piperidine-2,6-dione], for which the DC50 was 1.4 nM.

With `CNc1ccc(-c2ccnc3c2cc([C@H](C)N2CC=C(c4c(C)cc(C(=O)N5CCC(CC6CCN(c7ccc8c(c7)C7(CC7)C(=O)N8C7CCC(=O)NC7=O)CC6)CC5)cc4F)CC2)n3C)cn1` (stereo partly drawn) [Example 3h8, 3-(5′-(4-((1-(3-fluoro-5-methyl-4-(1-((S)-1-(1-methyl-4-(6-(methylamino)pyridin-3-yl)-1H-pyrrolo[2,3-b]pyridin-2-yl)ethyl)-1,2,3,6-tetrahydropyridin-4-yl)benzoyl)piperidin-4-yl)methyl)piperidin-1-yl)-2′-oxospiro[cyclopropane-1,3′-indolin]-1′-yl)piperidine-2,6-dione], the DC50 is 28.4 nM.

For the compound `C[C@H]1CN(Cc2ccc3c(c2)n(C)c(=O)n3C2CCC(=O)NC2=O)CCN1CC1CCN(C(=O)c2ccc(N3CCN(Cc4cc5c(-c6ccc(N)nc6)ccnc5n4C)CC3)cc2)CC1` (stereo partly drawn) [Example 3h14, 3-(5-(((S)-4-((1-(4-(4-((4-(6-aminopyridin-3-yl)-1-methyl-1H-pyrrolo[2,3-b]pyridin-2-yl)methyl)piperazin-1-yl)benzoyl)piperidin-4-yl)methyl)-3-methylpiperazin-1-yl)methyl)-3-methyl-2-oxo-2,3-dihydro-1H-benzo[d]imidazol-1-yl)piperidine-2,6-dione], the DC50 was found to be 1.1 nM.

The same assay, now with this note: HeLa LgBiT clone 4.14, 4-24 h; read-out: STAT6 degradation Emax (%).
Consider `Cn1c(CN2CCC(c3ccc(C(=O)N4CCN(CC5CCN(Cc6ccc7c(c6)n(C)c(=O)n7C6CCC(=O)NC6=O)CC5)CC4)cc3)CC2)cc2c(-c3ccc4[nH]ncc4c3)ccnc21` (centres unmarked) [Example 3f1, 3-(5-((4-((4-(4-(1-((4-(1H-indazol-5-yl)-1-methyl-1H-pyrrolo[2,3-b]pyridin-2-yl)methyl)-piperidin-4-yl)benzoyl)piperazin-1-yl)methyl)piperidin-1-yl)methyl)-3-methyl-2-oxo-2,3-dihydro-1H-benzo[d]imidazol-1-yl)piperidine-2,6-dione], for which the Emax fell in the range of 40 to 50%.
